Measurements taken from patent US20250257401A1, “BIOMARKER FOR TUBEROUS SCLEROSIS COMPLEX WITH NO MUTATION IDENTIFIED IN TSC1 OR TSC2 GENE, AND USES THEREOF” (Guangzhou KingMed Transformative Medicine Institute Co., …, priority 2022, published 2025).

Assays:
Format in all cases: cell-based, human
HEK293 cells = experiment: Dose-dependent cell viability, preliminary IC50 experiment (HEK293); settings: FIG. 6
HaCaT cells = experiment: Dose-dependent cell viability, preliminary IC50 experiment (HaCaT); settings: FIG. 6
IQGAP2-silenced cells = experiment: Cell proliferation of IQGAP2-silenced cells after administration of inhibitors (CCK8); settings: IQGAP2-silenced HaCaT and HEK293 cells; each inhibitor in a dose of IC50; FIG. 7 and FIG. 8
Text: That is, the pathway was further determined by verifying whether the cell proliferation caused by IQGAP2 silencing can be alleviated by inhibiting the AKT activity and mTORC1 activity (key factors of the mTOR pathway) in IQGAP2-silenced cells with the inhibitors.
Then, HaCaT cells and HEK293 cells were administrated with each inhibitor in a dose of IC50.

IQGAP2 gene [1] = experiment: IQGAP2 silencing by shRNA, gene and protein expression (HaCaT); settings: HaCaT cells; lentiviral transduction; 72 hours; FIG. 3
Text: (§1) To verify whether the abnormal IQGAP2 affected cell proliferation, IQGAP2-silenced cells were constructed using an RNAi approach. Since TSC could affect the skin and kidney of the patients, human keratinocytes (HaCaT) cells and human embryonic kidney 293 (HEK 293) cells were chosen as cell models. The shRNA sequence was designed and constructed for the IQGAP2 gene (as shown in Table 1), and IQGAP2-silenced HaCaT cells and IQGAP2-silenced HEK293 cells were obtained by lentiviral transduction. Subsequently, the cell proliferation of IQGAP2-silenced cells was detected at 24, 48, and 72 hours by using Cell Counting Kit 8 (CCK8).
(§2) The results were shown in FIGS. 3 to 4, and FIG. 3 depicted the gene expression level of IQGAP2-silenced human keratinocytes cells and IQGAP2-silenced human embryonic kidney 293 cells at 72 hours. […] And Control represented a control group, shGFP represented the empty vector control group, sh IQ IQGAP2-1, sh IQ IQGAP2-2, and sh IQ IQGAP2-3 represented the corresponding shRNA-1 to shRNA-3 primer silencing groups (repeated in triplicate for each group), respectively, and GAPDH represented the internal reference gene.

IQGAP2 gene [2] = experiment: IQGAP2 silencing by shRNA, gene and protein expression (HEK293); settings: HEK293 cells; lentiviral transduction; 72 hours; FIG. 3
Text: as §1, §2

`O=c1[nH]c2ccccc2n1C1CCN(Cc2ccc(-c3nc4cc5[nH]cnc5cc4nc3-c3ccccc3)cc2)CC1` [AKT inhibitor VIII] was tested, and the IC50 (HEK293 cells) was 12.5 µM, the IC50 (HaCaT cells) was 25 µM and the “cell proliferation of IQGAP2-silenced cells” value (IQGAP2-silenced cells) was “reduce the cell proliferation”.
For “IQGAP2-shRNA-3: IQGAP2-silenced shRNA sequence 5′-GCTCCAGATGGCTTTGATATC-3′ (SEQ ID NO. 3) (GCUCCAGAUGGCUUUGAUAUC)”, the IQGAP2 silencing (IQGAP2 gene [1]) was “optimum silencing”.
Work on `CO[C@H]1C[C@@H]2CC[C@@H](C)[C@@](O)(O2)C(=O)C(=O)N2CCCC[C@H]2C(=O)O[C@H]([C@H](C)C[C@@H]2CC[C@@H](O)[C@H](OC)C2)CC(=O)[C@H](C)/C=C(\C)[C@@H](O)[C@@H](OC)C(=O)[C@H](C)C[C@H](C)/C=C/C=C/C=C/1C` [Rapamycin] yielded an IC50 (HEK293 cells; Homo sapiens) of 12.5 µM and an IC50 (HaCaT cells; Homo sapiens) of 50 µM.
“IQGAP2-shRNA-1: IQGAP2-silenced shRNA sequence 5′-GCTCCTACCTACTGCGAATAT-3′ (SEQ ID NO. 1) (GCUCCUACCUACUGCGAAUAU)” was tested, and the IQGAP2 silencing (IQGAP2 gene [2]) was “optimum silencing”.
